Measured values reported in patent US20040014790A1, “Tartrate salt of thiazolidinedione derivative” (priority 2000, published 2004).

Test: Solid state stability of the drug substance (HPLC assay for final content and degradation products)
Assay type: physicochemical
Details: 1 month, product of Example 1
Method: The solid state stability of the drug substance was determined by storing approximately 1.0 g of the material in a glass bottle at i) 40° C./75% Relative Humidity (RH), open exposure, for 1 month and b) at 50° C., closed, for 1 month. The material was assayed by HPLC for final content and degradation products in both cases.

[1] = 40° C./75% Relative Humidity (RH), open exposure

CN(CCOc1ccc(CC2SC(=O)NC2=O)cc1)c1ccccn1.O=C(O)C(O)C(O)C(=O)O (racemic) [DL-Tartrate, 5-[4-[2-(N-methyl-N-(2-pyridyl)amino)ethoxy]benzyl]thiazolidine-2,4-dione DL tartrate]
Solid state stability: HPLC assay [1]: 97 % initial | Solid state stability: degradation observed [1]: No significant degradation observed | Solid state stability: HPLC assay (50° C., closed): 99 % initial | Solid state stability: degradation observed (50° C., closed): No significant degradation observed
